Measurements reported in PubChem BioAssay (NCI).
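GI50: concentration for 50% inhibition of growth. TGI marks complete inhibition of growth.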

Legend:
Assay in all cases: growth of human tumour cells (NCI), 384-well format
[1] = test system: 786-0 renal
[2] = test system: A498 renal
[3] = test system: A549 NSCLC
[4] = test system: ACHN renal
[5] = test system: BT-549 breast
[6] = test system: CAKI-1 renal
[7] = test system: CCRF-CEM leukemia
[8] = test system: COLO 205 colon
[9] = test system: DU-145 prostate
[10] = test system: EKVX NSCLC
[11] = test system: HCC-2998 colon
[12] = test system: HCT-116 colon
[13] = test system: HCT-15 colon
[14] = test system: HL-60(TB) leukemia
[15] = test system: HOP-62 NSCLC
[16] = test system: HOP-92 NSCLC
[17] = test system: HS 578T breast
[18] = test system: HT29 colon
[19] = test system: IGROV1 ovarian
[20] = test system: K-562 leukemia
[21] = test system: KM12 colon
[22] = test system: LOX IMVI melanoma
[23] = test system: M14 melanoma
[24] = test system: MALME-3M melanoma
[25] = test system: MCF7 breast
[26] = test system: MDA-MB-231 breast
[27] = test system: MDA-MB-435 melanoma
[28] = test system: MDA-MB-468 breast
[29] = test system: MOLT-4 leukemia
[30] = test system: NCI-H226 lung
[31] = test system: NCI-H23 lung
[32] = test system: NCI-H322M lung
[33] = test system: NCI-H460 NSCLC
[34] = test system: NCI-H522 lung
[35] = test system: NCI/ADR-RES ovarian
[36] = test system: OVCAR-3 ovarian
[37] = test system: OVCAR-4 ovarian
[38] = test system: OVCAR-5 ovarian
[39] = test system: OVCAR-8 ovarian
[40] = test system: PC-3 prostate
[41] = test system: RPMI-8226 leukemia
[42] = test system: RXF 393 renal
[43] = test system: SF-268 CNS
[44] = test system: SF-295 CNS
[45] = test system: SF-539 CNS
[46] = test system: SK-MEL-28 melanoma
[47] = test system: SK-MEL-5 melanoma
[48] = test system: SK-OV-3 ovarian
[49] = test system: SN12C renal
[50] = test system: SNB-19 CNS
[51] = test system: SNB-75 CNS
[52] = test system: SW-620 colon
[53] = test system: T-47D breast
[54] = test system: TK-10 renal
[55] = test system: U251 glioblastoma
[56] = test system: UACC-257 melanoma
[57] = test system: UACC-62 melanoma
[58] = test system: UO-31 renal

Compound: CNC(=O)c1c(F)cccc1Nc1nc(Nc2cc3c(cc2OC)CCN3C(=O)CN(C)C)nc2[nH]ccc12
- GI50 [1]: 1480 nM
- TGI [1]: 2840 nM
- GI50 [2]: 1820 nM
- TGI [2]: 3220 nM
- GI50 [3]: 1410 nM
- TGI [3]: 2760 nM
- GI50 [4]: 1740 nM
- TGI [4]: 3170 nM
- GI50 [5]: 1660 nM
- TGI [5]: 3040 nM
- GI50 [6]: 1820 nM
- TGI [6]: 3240 nM
- GI50 [7]: 387 nM
- TGI [7]: 1220 nM
- GI50 [8]: 152 nM
- TGI [8]: 1230 nM
- GI50 [9]: 1820 nM
- TGI [9]: 3600 nM
- GI50 [10]: 1600 nM
- TGI [10]: 3090 nM
- GI50 [11]: 1410 nM
- TGI [11]: 2760 nM
- GI50 [12]: 1440 nM
- TGI [12]: 2790 nM
- GI50 [13]: 1250 nM
- TGI [13]: 2610 nM
- GI50 [14]: 71.1 nM
- TGI [14]: 944 nM
- GI50 [15]: 1830 nM
- TGI [15]: 3390 nM
- GI50 [16]: 1150 nM
- TGI [16]: 2420 nM
- GI50 [17]: 1780 nM
- TGI [17]: 3190 nM
- GI50 [18]: 181 nM
- TGI [18]: 1870 nM
- GI50 [19]: 1760 nM
- TGI [19]: 3270 nM
- GI50 [20]: 1750 nM
- TGI [20]: 3140 nM
- GI50 [21]: 1440 nM
- TGI [21]: 2770 nM
- GI50 [22]: 1610 nM
- TGI [22]: 2970 nM
- GI50 [23]: 1510 nM
- TGI [23]: 2840 nM
- GI50 [24]: 1250 nM
- TGI [24]: 2510 nM
- GI50 [25]: 210 nM
- TGI [25]: 1720 nM
- GI50 [26]: 1590 nM
- TGI [26]: 2980 nM
- GI50 [27]: 1510 nM
- TGI [27]: 2860 nM
- GI50 [28]: 1560 nM
- TGI [28]: 2920 nM
- GI50 [29]: 968 nM
- TGI [29]: 2140 nM
- GI50 [30]: 1740 nM
- TGI [30]: 3740 nM
- GI50 [31]: 1330 nM
- TGI [31]: 2750 nM
- GI50 [32]: 1580 nM
- TGI [32]: 3180 nM
- GI50 [33]: 1240 nM
- TGI [33]: 2530 nM
- GI50 [34]: 1910 nM
- TGI [34]: 3330 nM
- GI50 [35]: 2230 nM
- TGI [35]: 4980 nM
- GI50 [36]: 1800 nM
- TGI [36]: 3250 nM
- GI50 [37]: 1990 nM
- TGI [37]: 3500 nM
- GI50 [38]: 1480 nM
- TGI [38]: 3240 nM
- GI50 [39]: 1710 nM
- TGI [39]: 3120 nM
- GI50 [40]: 2190 nM
- TGI [40]: 4450 nM
- GI50 [41]: 1140 nM
- TGI [41]: 2370 nM
- GI50 [42]: 1720 nM
- TGI [42]: 3110 nM
- GI50 [43]: 1300 nM
- TGI [43]: 2610 nM
- GI50 [44]: 1870 nM
- TGI [44]: 3290 nM
- GI50 [45]: 1800 nM
- TGI [45]: 3200 nM
- GI50 [46]: 1870 nM
- TGI [46]: 3270 nM
- GI50 [47]: 1220 nM
- TGI [47]: 2480 nM
- GI50 [48]: 1970 nM
- TGI [48]: 3450 nM
- GI50 [49]: 2050 nM
- TGI [49]: 3500 nM
- GI50 [50]: 2350 nM
- TGI [50]: 4810 nM
- GI50 [51]: 2000 nM
- TGI [51]: 3460 nM
- GI50 [52]: 1180 nM
- TGI [52]: 2440 nM
- GI50 [53]: 1940 nM
- TGI [53]: 3380 nM
- GI50 [54]: 1860 nM
- TGI [54]: 3540 nM
- GI50 [55]: 1900 nM
- TGI [55]: 3350 nM
- GI50 [56]: 1720 nM
- TGI [56]: 3110 nM
- GI50 [57]: 1560 nM
- TGI [57]: 2910 nM
- GI50 [58]: 1840 nM
- TGI [58]: 3290 nM
